Laboratory results from patent US20030133905A1, “Composition for treating contact lenses in the eye” (priority 2001, published 2003).

Molecular target: T1, hen egg lysozyme (Gallus gallus, UniProt P00698)
T1 construct: 1 mg/ml of hen egg lysozyme; from tissue; host or cells: hen egg
Assay: Stabilization of lysozyme against heat denaturation, read out as lysis of M. luteus suspension (optical density at 450 nm)
Type: biochemical
Settings: saline with 20 mM buffering agent
Description: Each solution included saline and 20 mM of buffering agent as identified in Table 1 below. To each test solution was added 1 mg/ml of hen egg lysozyme as well as a phosphate buffered saline (PBS) control. The test solutions were mixed slowly with a stir bar until the lysozyme was incorporated into the solutions. Five ml of each lysozyme-containing test solution was retained as the unheated control. The remaining 5 ml of each lysozyme-containing test solution were placed in glass lens vials, capped with silicone stoppers and incubated in a shaking water bath at 80° C., 40 revolutions per minute (rpm) for 1 hour. These heating conditions are sufficient to denature the lysozyme, absent a stabilization effect provided by the buffering agents. The vials were allowed to come to ambient temperature before testing. A 0.00025g/ml suspension of M. luteus was prepared from lyophilized cells in PBS. The suspension was continually mixed on a stir plate during the testing period to prevent the suspension from settling. For each set of test solutions, the following were tested (sample): a heated lysozyme-containing test solution (“lysozyme+heat”); an unheated lysozyme-containing test solution (“lysozyme/no heat”); and a test solution without lysozyme (“no lysozyme”). One ml of each sample was placed into a glass test tube to which 9 ml of M. luteus suspension was added and vortexed. A 1-ml sub-sample was placed into a disposable cuvette and evaluated on a UV-vis spectrophotometer at 450 nm. This procedure was performed for each sample at 0, 5 and 10 minutes. Each of the solutions was evaluated in triplicate. Each of the three optical density measurements from the triplicate samples was averaged. […] As shown by the test data set forth below in the Table 3, the lens drop solutions containing tromethamine were very effective at stabilizing the protein against denaturation.

[1] = lysozyme + heat (80° C., 1 hour), 1 mg/ml lysozyme
[2] = lysozyme/no heat, 1 mg/ml lysozyme, M. luteus suspension

T1 sequence (P00698 19-147): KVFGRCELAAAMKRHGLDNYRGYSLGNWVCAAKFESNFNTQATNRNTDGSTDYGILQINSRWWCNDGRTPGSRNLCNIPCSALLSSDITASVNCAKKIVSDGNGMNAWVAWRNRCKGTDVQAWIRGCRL

Row | Compound | optical density at 450 nm, Time 0 Min [1] | optical density at 450 nm, Time 5 Min [1] | optical density at 450 nm, Time 10 Min [1] | optical density at 450 nm, Time 0 Min [2] | optical density at 450 nm, Time 5 Min [2] | optical density at 450 nm, Time 10 Min [2] | optical density at 450 nm, Time 0 Min (no lysozyme) | optical density at 450 nm, Time 5 Min (no lysozyme) | optical density at 450 nm, Time 10 Min (no lysozyme)
1 | O=C(O)CC(O)(CC(=O)O)C(=O)O [Citrate] | 0.877 | 0.851 | 0.785 | 0.654 | 0.049 | 0.030 | 0.857 | 0.850 | 0.850
2 | NC(CO)(CO)CO [Tris, 2-amino-2-hydroxymethyl-1,3-propanediol] | 0.810 | 0.154 | 0.117 | 0.654 | 0.048 | 0.028 | 0.859 | 0.854 | 0.854
3 | Borate | 0.872 | 0.681 | 0.390 | 0.619 | 0.053 | 0.034 | 0.853 | 0.853 | 0.854
4 | Phosphate | 0.861 | 0.858 | 0.852 | 0.634 | 0.052 | 0.029 | 0.856 | 0.852 | 0.854
